Source: patent US6706740B2, “Fungicidal heterocyclic aromatic amides and their compositions, methods of use and preparation” (Dow AgroSciences LLC, priority 1999, dated 2004)
Like-named read-outs stand apart in the source and are kept apart here.

Legend:
[1] = system: Magnaporthe grisea (Pyricularia oryzae—PYRIOR); assay: microbe, parasite or virus in culture; format: cell-based; settings: Pyricularia oryzae, read-out: PYRIOR in vitro Growth Inhibition
[2] = system: Rhizoctonia solani (RHIZSO); assay: microbe, parasite or virus in culture; format: cell-based; settings: Rhizoctonia solani, read-out: RHIZSO in vitro Growth Inhibition
[3] = system: Erysiphe graminis—ERYSGT; assay: Powdery Mildew of Wheat, in vivo whole plant, 24 Hour Protectant; settings: Erysiphe, control of fungal infection vs untreated plants, read-out: ERYSGT in vivo 1 Day Protectant
[4] = system: Puccinia recondita—PUCCRT; assay: Brown Rust of Wheat, in vivo whole plant, 24 Hour Protectant; settings: control of fungal infection vs untreated plants; for pest or weed control at 100 ppm: Puccinia, read-out: PUCCRT in vivo 1 Day Protectant
[5] = system: Phytophthora infestans—PHYTIN; assay: whole plant or invertebrate; format: in vivo; settings: Phytophthora, in Solanum lycopersicum, 24 h, read-out: PHYTIN in vivo 1 Day Protectant
[6] = system: Leptosphaeria nodorum—LEPTNO; assay: Glume Blotch of Wheat, in vivo whole plant, 24 Hour Protectant; settings: control of fungal infection vs untreated plants; for pest or weed control at 100 ppm: Leptosphaeria, read-out: LEPTNO in vivo 1 Day Protectant
[7] = system: Mycosphaerella graminicola (Septoria tritici—SEPTTR); assay: In vitro fungal growth inhibition, Mycosphaerella graminicola (SEPTTR); format: cell-based; settings: Zymoseptoria tritici, read-out: SEPTTR in vitro Growth Inhibition
[8] = system: Phytophthora infestans (PHYTIN); assay: microbe, parasite or virus in culture; format: cell-based; settings: Phytophthora infestans, read-out: PHYTIN in vitro Growth Inhibition
[9] = system: Ustilago maydis (USTIMA); assay: microbe, parasite or virus in culture; format: cell-based; settings: Mycosarcoma maydis, read-out: USTIMA in vitro Growth Inhibition
[10] = system: Septoria tritici—SEPTTR; assay: Leaf Blotch of Wheat, in vivo whole plant, 24 Hour Protectant; settings: Zymoseptoria tritici, 24 h, control of fungal infection vs untreated plants, read-out: SEPTTR in vivo 1 Day Protectant
[11] = system: Stagonospora nodorum (Leptosphaeria nodorum—LEPTNO); assay: In vitro fungal growth inhibition, Stagonospora nodorum (LEPTNO); format: cell-based; settings: Leptosphaeria, read-out: LEPTNO in vitro Growth Inhibition
[12] = 100 ppm spray, 24 hour protectant, wheat
[13] = wheat plants sprayed at 100 ppm, inoculated after 24 hours
[14] = 100 ppm spray, wheat, 24 hour protectant

SMILES | inhibition at 25 ppm [1] [%] | inhibition at 25 ppm [2] [%] | pest or weed control at 100 ppm [5] [%] | inhibition at 25 ppm ([7]; 25 ppm in growth medium) [%] | inhibition at 25 ppm [8] [%] | inhibition at 25 ppm [9] [%] | inhibition at 25 ppm ([11]; 25 ppm in growth medium) [%] | pest or weed control at 100 ppm [3, 14] [%] | pest or weed control at 100 ppm [4, 14] [%] | pest or weed control at 100 ppm [10, 14] [%] | also measured
COc1ccnc(C(=O)NC2COC(C)C2)c1O (centres unmarked) [Compound 310] | < 80 | < 80 | < 25 | < 80 | < 80 | < 80 | < 80 | – | – | – | pest or weed control at 100 ppm [3, 12]: 25 to 74%; pest or weed control at 100 ppm [4, 12]: < 25%; pest or weed control at 100 ppm [6, 12]: < 25%; pest or weed control at 100 ppm [10, 12]: < 25%
COc1ccnc(C(=O)N[C@H]2CO[C@H](C(C)Cc3ccc(C(C)(C)C)cc3)OC2)c1OC(C)=O (some centres unmarked) [Compound 594] | > 80 | > 80 | < 25 | – | < 80 | < 80 | – | – | – | – | pest or weed control at 100 ppm [3, 13]: < 25%; PUCCRT in vivo 1 Day Protectant [4, 13]: + +; pest or weed control at 100 ppm [6, 13]: 25 to 74%; inhibition at 25 ppm ([7]; 25 ppm in the growth medium): > 80%; pest or weed control at 100 ppm [10, 13]: 25 to 74%; inhibition at 25 ppm ([11]; 25 ppm in the growth medium): > 80%
COc1ccnc(C(=O)NC(COC(=O)CCc2ccccc2)C(=O)OC(C)COC(=O)C(C)C)c1O (centres unmarked) [Compound 358] | < 80 | < 80 | < 25 | < 80 | < 80 | < 80 | < 80 | < 25 | 25 to 74 | 25 to 74 | pest or weed control at 100 ppm [6, 14]: 25 to 74%
COc1ccnc(C(=O)Nc2ccc(Oc3cc(Oc4ccccc4)ncn3)cc2)c1O [Compound 468] | < 80 | < 80 | < 25 | – | < 80 | < 80 | – | – | – | – | pest or weed control at 100 ppm [3, 13]: < 25%; pest or weed control at 100 ppm [4, 13]: < 25%; pest or weed control at 100 ppm [6, 13]: < 25%; inhibition at 25 ppm ([7]; 25 ppm in the growth medium): < 80%; pest or weed control at 100 ppm [10, 13]: 25 to 74%; inhibition at 25 ppm ([11]; 25 ppm in the growth medium): < 80%
COc1ccnc(C(=O)N[C@H]2COC(=O)[C@H](Cc3ccccc3)[C@@H](OC(=O)OC(C)C)[C@H](C)OC2=O)c1O [Compound 401] | > 80 | < 80 | < 25 | > 80 | < 80 | > 80 | > 80 | < 25 | 25 to 74 | 25 to 74 | LEPTNO in vivo 1 Day Protectant [6, 14]: + +
COc1ccnc(C(=O)Nc2ccc(C(=O)Nc3cccc(C(F)(F)F)c3)cc2)c1O [Compound 449] | > 80 | > 80 | < 25 | < 80 | < 80 | < 80 | < 80 | < 25 | < 25 | 25 to 74 | pest or weed control at 100 ppm [6, 14]: 25 to 74%
COc1ccnc(C(=O)N[C@@H]2CC3CC2c2ccccc23)c1O (some centres unmarked) [Compound 290] | > 80 | > 80 | < 25 | > 80 | < 80 | < 80 | > 80 | – | – | – | pest or weed control at 100 ppm [3, 12]: 25 to 74%; PUCCRT in vivo 1 Day Protectant [4, 12]: + +; LEPTNO in vivo 1 Day Protectant [6, 12]: + +; pest or weed control at 100 ppm [10, 12]: 25 to 74%
